Source: ChEMBL document CHEMBL1201862, “PubChem BioAssay data set” (2004)
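Briefly, cells in 96-well plates were exposed to five compound concentrations for 48 h, and endpoints were estimated by linear interpolation. The concentration for 50% growth inhibition is given as GI50.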 Calls of active or inactive are those of the source. Cut-off read from the data, not from the text of the source: active = GI50 up to about 1.1 µM and inactive = higher.

Assays:
Test in all cases: NCI-60 cell line screen, 48 h
[1] = test system: SK-MEL-2
[2] = test system: DU-145
[3] = test system: UO-31
[4] = test system: PC-3
[5] = test system: SW-620
[6] = test system: HL-60
[7] = test system: U-251
[8] = test system: MOLT-4
[9] = test system: RXF 393
[10] = test system: M14
[11] = test system: SN12C
[12] = test system: NCI-H460
[13] = test system: SF-539
[14] = test system: A549
[15] = test system: CAKI-1
[16] = test system: 786-0
[17] = test system: SF-268
[18] = test system: KM12
[19] = test system: T47D
[20] = test system: K562

Measured: GI50

C/C(=C\CO)CC[C@@H]1[C@@]2(C)CCCC(C)(C)[C@@H]2CC[C@@]1(C)O
inactive: [1] 17.6 µM | [2] 18 µM | [3] 23.4 µM | [4] 16.4 µM | [5] 22.7 µM | [6] 20.5 µM | [7] 17.3 µM | [8] 51.8 µM | [9] 17.6 µM | [10] 23.4 µM | [11] 17.5 µM | [12] 17.3 µM | [13] 18.1 µM | [14] 29.6 µM | [15] 28.6 µM | [16] 20.4 µM | [17] 17.7 µM | [18] 19.2 µM | [19] 18.2 µM | [20] 16.5 µM

N#Cc1c(Nc2ccccc2)[n+]([O-])c2ccc(Cl)cc2[n+]1[O-]
inactive: [1] 18 µM | [2] 16.1 µM | [3] 2.89 µM | [4] 3.36 µM | [5] 4.63 µM | [6] 2.01 µM | [7] 3.15 µM | [8] 3.65 µM | [9] 9.77 µM | [10] 7.57 µM | [11] 4.49 µM | [12] 2.42 µM | [13] 5.22 µM | [14] 9.86 µM | [15] 5.09 µM | [16] 5.25 µM | [17] 4.38 µM | [18] 4.36 µM | [19] 6.65 µM | [20] 3.03 µM

Cc1ccc(NC(=O)c2cc(S(=O)(=O)N3CCNNC3=O)c(S)cc2Cl)cc1
inactive: [1] > 100 µM | [2] > 100 µM | [3] > 100 µM | [4] > 100 µM | [5] > 100 µM | [6] > 100 µM | [7] > 100 µM | [8] > 100 µM | [9] 27.3 µM | [10] > 100 µM | [11] > 100 µM | [12] > 100 µM | [13] > 100 µM | [14] > 100 µM | [15] > 100 µM | [16] > 100 µM | [17] > 100 µM | [18] > 100 µM | [19] 41.8 µM | [20] 56.5 µM

CC1=C(C(=O)Nc2ccccc2C)C(c2ccc(C3C(C(=O)Nc4ccccc4C)=C(C)NC(C)=C3C(=O)Nc3ccccc3C)cc2)C(C(=O)Nc2ccccc2C)=C(C)N1
inactive: [1] 9.23 µM | [2] 15.9 µM | [3] 13.4 µM | [4] 4.39 µM | [5] 2.49 µM | [6] 2.53 µM | [7] 2.25 µM | [8] 2.48 µM | [9] 4.31 µM | [10] 2.82 µM | [11] 1.71 µM | [12] 9.04 µM | [13] 4.44 µM | [14] 10.8 µM | [15] 7.1 µM | [16] 3.47 µM | [17] 2.58 µM | [18] 2.16 µM | [19] 4.24 µM | [20] 2.87 µM

Cc1cn(CCCCCCOC(=O)NC(CCCNC(=N)N)C(=O)O)c(=O)[nH]c1=O (stereo not given)
inactive: [1] > 100 µM | [2] > 100 µM | [3] > 100 µM | [4] > 100 µM | [5] > 100 µM | [6] > 100 µM | [7] > 100 µM | [8] > 100 µM | [9] > 100 µM | [10] > 100 µM | [11] > 100 µM | [12] > 100 µM | [13] > 100 µM | [14] > 100 µM | [15] > 100 µM | [16] > 100 µM | [17] > 100 µM | [18] > 100 µM | [19] > 100 µM | [20] > 100 µM

Cc1cc2c(cc1Cl)SC(NNC(=O)c1ccco1)=NS2(=O)=O
inactive: [1] > 10 µM | [2] > 10 µM | [3] > 10 µM | [4] > 10 µM | [5] > 10 µM | [6] > 10 µM | [7] > 10 µM | [8] > 10 µM | [9] > 10 µM | [10] > 10 µM | [11] > 10 µM | [12] > 10 µM | [13] > 10 µM | [14] > 10 µM | [15] > 10 µM | [16] > 10 µM | [17] > 10 µM | [18] > 10 µM | [19] > 10 µM | [20] > 10 µM

Cc1nc(O)nc(N/N=C/c2ccc(Cl)c(Cl)c2)c1C(=O)Nc1ccc(Cl)c(Cl)c1
inactive: [1] 17 µM | [2] 12.6 µM | [3] > 42.1 µM | [4] 12.7 µM | [5] 12.9 µM | [6] 45.8 µM | [7] 6.81 µM | [8] 38.5 µM | [9] 15.2 µM | [10] 5.22 µM | [11] 18.1 µM | [12] 18.4 µM | [13] 15.7 µM | [14] 14 µM | [15] 17.2 µM | [16] 10.3 µM | [17] 10.5 µM | [18] 6.49 µM | [19] 24.7 µM | [20] 11.5 µM

COC(=O)/C=C(/C(=O)OC)c1cc2ccc3c([nH]c4ccccc43)c(C)c-2c1
inactive: [1] 7.5 µM | [2] 9.73 µM | [3] 3.79 µM | [4] 2.68 µM | [5] 4.93 µM | [6] 3.15 µM | [7] 3.85 µM | [8] 3.13 µM | [9] 7.31 µM | [10] 4.37 µM | [11] 10.1 µM | [12] 4.45 µM | [13] 11.4 µM | [14] 4.73 µM | [15] 6.32 µM | [16] 4.78 µM | [17] 4.26 µM | [18] 3.73 µM | [19] 3.6 µM | [20] 2.54 µM

COc1cc2oc(=O)cc(C)c2cc1[N+](=O)[O-]
inactive: [1] 12.4 µM | [2] 33.1 µM | [3] 34.4 µM | [4] 27.9 µM | [5] 23 µM | [6] 8.87 µM | [7] 37.4 µM | [8] 13.7 µM | [9] 15.1 µM | [10] 16.7 µM | [11] 16.4 µM | [12] 46.3 µM | [13] 23.8 µM | [14] > 90.4 µM | [15] 13.8 µM | [16] 17.5 µM | [17] 17.5 µM | [18] 25.7 µM | [19] 20.7 µM | [20] 22.4 µM

Nc1c(Cl)ncnc1N[C@@H]1C[C@H]1CO
inactive: [1] > 100 µM | [2] > 100 µM | [3] > 100 µM | [4] > 100 µM | [5] > 100 µM | [6] > 100 µM | [7] > 100 µM | [8] > 100 µM | [9] > 100 µM | [10] > 100 µM | [11] > 100 µM | [12] > 100 µM | [13] > 100 µM | [14] > 100 µM | [15] > 100 µM | [16] > 100 µM | [17] > 100 µM | [18] > 100 µM | [19] > 100 µM | [20] > 100 µM

Clc1cc2ccccc2c2ccccc12
inactive: [1] 27.5 µM | [2] 43 µM | [3] 97.3 µM | [4] 50.2 µM | [5] 90.6 µM | [6] 35.2 µM | [7] 44 µM | [8] 69.2 µM | [9] 32.8 µM | [10] 31.5 µM | [11] 86.3 µM | [12] 44.8 µM | [13] 64 µM | [14] 44 µM | [15] 42 µM | [16] > 100 µM | [17] 74 µM | [18] 47.9 µM | [19] 32 µM | [20] 42.1 µM

COc1cc(-c2c3c([nH]c(=O)c2C#N)-c2cc([N+](=O)[O-])ccc2CCC3)cc(OC)c1OC
inactive: [1] 17.9 µM | [2] 25.8 µM | [3] 19 µM | [4] 20.2 µM | [5] 40.5 µM | [6] 21.4 µM | [7] 23.6 µM | [8] 16 µM | [9] 22.1 µM | [10] 35.1 µM | [11] 16.2 µM | [12] 16.8 µM | [13] 24.3 µM | [14] 23.8 µM | [15] 26.9 µM | [16] 24.7 µM | [17] 24.2 µM | [18] 20.2 µM | [19] 14.1 µM | [20] 18.9 µM

CN(C)CCNC(=O)c1ccc(NC(=O)c2nc([N+](=O)[O-])cn2C)cc1
inactive: [1] > 100 µM | [2] > 100 µM | [3] > 100 µM | [4] > 100 µM | [5] > 100 µM | [6] > 100 µM | [7] > 100 µM | [8] > 100 µM | [9] > 100 µM | [10] > 100 µM | [11] > 100 µM | [12] > 100 µM | [13] > 100 µM | [14] > 100 µM | [15] > 100 µM | [16] > 100 µM | [17] > 100 µM | [18] > 100 µM | [19] > 100 µM | [20] > 100 µM

Cc1ccc(Nc2n[nH]c(=S)s2)cc1C
inactive: [1] > 100 µM | [2] > 100 µM | [3] > 100 µM | [4] > 100 µM | [5] > 100 µM | [6] 71.1 µM | [7] 92.7 µM | [8] 59.3 µM | [9] > 100 µM | [10] > 100 µM | [11] > 100 µM | [12] 59 µM | [13] > 100 µM | [14] 79.4 µM | [15] > 100 µM | [16] > 100 µM | [17] > 100 µM | [18] 78.5 µM | [19] 27.4 µM | [20] 64.1 µM
